Results taken from PubChem BioAssay (NCI).
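Compound exposure: 48 hours, 5 concentrations, 96-well plates. At the GI50, growth is halved. TGI marks complete inhibition of growth.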

Tests used:
Assay in all cases: inhibition of tumour cell growth, NCI panel, 48 h
SF-295 CNS = tested on: SF-295 CNS
A549 NSCLC = tested on: A549 NSCLC
DU-145 prostate = tested on: DU-145 prostate
HCC-2998 colon = tested on: HCC-2998 colon
CCRF-CEM leukemia = tested on: CCRF-CEM leukemia
SW-620 colon = tested on: SW-620 colon
SK-OV-3 ovarian = tested on: SK-OV-3 ovarian
NCI/ADR-RES ovarian = tested on: NCI/ADR-RES ovarian
LOX IMVI melanoma = tested on: LOX IMVI melanoma
HS 578T breast = tested on: HS 578T breast
IGROV1 ovarian = tested on: IGROV1 ovarian
T-47D breast = tested on: T-47D breast
SK-MEL-2 melanoma = tested on: SK-MEL-2 melanoma
NCI-H226 lung = tested on: NCI-H226 lung
UO-31 renal = tested on: UO-31 renal
MOLT-4 leukemia = tested on: MOLT-4 leukemia
MDA-MB-231 breast = tested on: MDA-MB-231 breast
HOP-62 NSCLC = tested on: HOP-62 NSCLC
SNB-75 CNS = tested on: SNB-75 CNS
SN12C renal = tested on: SN12C renal
NCI-H522 lung = tested on: NCI-H522 lung
OVCAR-8 ovarian = tested on: OVCAR-8 ovarian
M14 melanoma = tested on: M14 melanoma
SK-MEL-28 melanoma = tested on: SK-MEL-28 melanoma
HOP-92 NSCLC = tested on: HOP-92 NSCLC
RPMI-8226 leukemia = tested on: RPMI-8226 leukemia
NCI-H460 lung = tested on: NCI-H460 lung
MCF7 breast = tested on: MCF7 breast
SF-268 CNS = tested on: SF-268 CNS
BT-549 breast = tested on: BT-549 breast
HL-60(TB) leukemia = tested on: HL-60(TB) leukemia
MDA-MB-435 = tested on: MDA-MB-435
NCI-H23 lung = tested on: NCI-H23 lung
PC-3 prostate = tested on: PC-3 prostate
OVCAR-3 ovarian = tested on: OVCAR-3 ovarian
EKVX NSCLC = tested on: EKVX NSCLC
786-0 renal = tested on: 786-0 renal
UACC-62 melanoma = tested on: UACC-62 melanoma
SR leukemia = tested on: SR leukemia
A498 renal = tested on: A498 renal
U251 CNS = tested on: U251 CNS
COLO 205 colon = tested on: COLO 205 colon
SK-MEL-5 melanoma = tested on: SK-MEL-5 melanoma
SNB-19 CNS = tested on: SNB-19 CNS
HCT-116 colon = tested on: HCT-116 colon
CAKI-1 renal = tested on: CAKI-1 renal
UACC-257 melanoma = tested on: UACC-257 melanoma
RXF 393 renal = tested on: RXF 393 renal
HT29 colon = tested on: HT29 colon
KM12 colon = tested on: KM12 colon
TK-10 renal = tested on: TK-10 renal
MALME-3M melanoma = tested on: MALME-3M melanoma
OVCAR-4 ovarian = tested on: OVCAR-4 ovarian
K-562 leukemia = tested on: K-562 leukemia

CN(C)c1ccc2nc3ccc(=[N+](C)C)c([N+](=O)[O-])c-3sc2c1
GI50 (SF-295 CNS): 3.04 µM | TGI (SF-295 CNS): 16.6 µM | GI50 (A549 NSCLC): 1.46 µM | TGI (A549 NSCLC): 18.1 µM | GI50 (DU-145 prostate): 4.75 µM | TGI (DU-145 prostate): 18.3 µM | GI50 (HCC-2998 colon): 5.18 µM | TGI (HCC-2998 colon): 16.8 µM | GI50 (CCRF-CEM leukemia): 0.908 µM | TGI (CCRF-CEM leukemia): 15.4 µM | GI50 (SW-620 colon): 2.57 µM | TGI (SW-620 colon): 12.3 µM | GI50 (SK-OV-3 ovarian): 11.8 µM | TGI (SK-OV-3 ovarian): 28.9 µM | GI50 (NCI/ADR-RES ovarian): 2.33 µM | TGI (NCI/ADR-RES ovarian): 8.13 µM | GI50 (LOX IMVI melanoma): 1.32 µM | TGI (LOX IMVI melanoma): 7.85 µM | GI50 (HS 578T breast): 3.33 µM | TGI (HS 578T breast): 26.1 µM | GI50 (IGROV1 ovarian): 2.56 µM | GI50 (T-47D breast): 2.16 µM | TGI (T-47D breast): 7.47 µM | GI50 (SK-MEL-2 melanoma): 4.54 µM | TGI (SK-MEL-2 melanoma): 16.1 µM | GI50 (NCI-H226 lung): 7.97 µM | TGI (NCI-H226 lung): 22.4 µM | GI50 (UO-31 renal): 5.98 µM | TGI (UO-31 renal): 23.4 µM | GI50 (MOLT-4 leukemia): 2.3 µM | TGI (MOLT-4 leukemia): 10.6 µM | GI50 (MDA-MB-231 breast): 0.578 µM | TGI (MDA-MB-231 breast): 4.46 µM | GI50 (HOP-62 NSCLC): 8.6 µM | TGI (HOP-62 NSCLC): 22.2 µM | GI50 (SNB-75 CNS): 2.93 µM | TGI (SNB-75 CNS): 13.3 µM | GI50 (SN12C renal): 1.37 µM | TGI (SN12C renal): 5.26 µM | GI50 (NCI-H522 lung): 1.81 µM | TGI (NCI-H522 lung): 5.19 µM | GI50 (OVCAR-8 ovarian): 1.87 µM | TGI (OVCAR-8 ovarian): 10.4 µM | GI50 (M14 melanoma): 1.32 µM | TGI (M14 melanoma): 10.8 µM | GI50 (SK-MEL-28 melanoma): 10.3 µM | TGI (SK-MEL-28 melanoma): 22 µM | GI50 (HOP-92 NSCLC): 2.09 µM | TGI (HOP-92 NSCLC): 11.3 µM | GI50 (RPMI-8226 leukemia): 0.536 µM | TGI (RPMI-8226 leukemia): 15.9 µM | GI50 (NCI-H460 lung): 2.59 µM | TGI (NCI-H460 lung): 15.2 µM | GI50 (MCF7 breast): 1.79 µM | TGI (MCF7 breast): 5.9 µM | GI50 (SF-268 CNS): 2.1 µM | TGI (SF-268 CNS): 13.2 µM | GI50 (BT-549 breast): 8.29 µM | TGI (BT-549 breast): 21.7 µM | GI50 (HL-60(TB) leukemia): 0.302 µM | TGI (HL-60(TB) leukemia): 4.7 µM | GI50 (MDA-MB-435): 2.46 µM | TGI (MDA-MB-435): 11.4 µM | GI50 (NCI-H23 lung): 1.87 µM | TGI (NCI-H23 lung): 9.65 µM | GI50 (PC-3 prostate): 0.599 µM | TGI (PC-3 prostate): 6.78 µM | GI50 (OVCAR-3 ovarian): 0.271 µM | TGI (OVCAR-3 ovarian): 0.926 µM | GI50 (EKVX NSCLC): 1.67 µM | TGI (EKVX NSCLC): 16.2 µM | GI50 (786-0 renal): 6.2 µM | TGI (786-0 renal): 21.4 µM | GI50 (UACC-62 melanoma): 1.1 µM | TGI (UACC-62 melanoma): 3 µM | GI50 (SR leukemia): 0.797 µM | TGI (SR leukemia): 17.5 µM | GI50 (A498 renal): 7.06 µM | TGI (A498 renal): 21.9 µM | GI50 (U251 CNS): 1.21 µM | TGI (U251 CNS): 11.1 µM | GI50 (COLO 205 colon): 1.7 µM | TGI (COLO 205 colon): 9.83 µM | GI50 (SK-MEL-5 melanoma): 1.44 µM | TGI (SK-MEL-5 melanoma): 12.1 µM | GI50 (SNB-19 CNS): 0.483 µM | TGI (SNB-19 CNS): 17.4 µM | GI50 (HCT-116 colon): 2.45 µM | TGI (HCT-116 colon): 13.2 µM | GI50 (CAKI-1 renal): 2.59 µM | TGI (CAKI-1 renal): 13.1 µM | GI50 (UACC-257 melanoma): 2.85 µM | TGI (UACC-257 melanoma): 8.59 µM | GI50 (RXF 393 renal): 4.41 µM | TGI (RXF 393 renal): 18.1 µM | GI50 (HT29 colon): 6.04 µM | TGI (HT29 colon): 25.1 µM | GI50 (KM12 colon): 2.08 µM | TGI (KM12 colon): 16.4 µM | GI50 (TK-10 renal): 7.46 µM | TGI (TK-10 renal): 23.5 µM | GI50 (MALME-3M melanoma): 2.38 µM | TGI (MALME-3M melanoma): 8.97 µM | GI50 (OVCAR-4 ovarian): 0.906 µM | TGI (OVCAR-4 ovarian): 3.04 µM | GI50 (K-562 leukemia): 1.94 µM | TGI (K-562 leukemia): 19.4 µM
